Measured values taken from publication PMC11904948, “Peptide‐Drug Conjugate for Therapeutic Reprogramming of Tumor‐Associated Macrophages in Breast Cancer” (Advanced Science, 2025).

System: orthotopic 4T1.2 tumors
Experiment: MACTIDE-V + anti-PD-1 combination therapy in orthotopic 4T1.2
Format: in vivo, Balb/c mice
Protocol: 4T1.2 bearing mice were treated with 9 doses of CtrlPep‐V, MACTIDE‐V (1 mg Kg^−1 in Verteporfin per dose), or PBS i.p. every other day according to the scheme in (A). Anti‐PD‐1 injections started 16 days post‐tumor induction (three injections of 200 µg each). Mice were sacrificed on day 29, their tumor weights were analyzed (B), pulmonary metastases area quantified from H&E‐stained sections (C), and their tumors were analyzed with flow cytometry (D–H).
5×10^5 4T1.2 cells in 50 µL of PBS were injected subcutaneously into 4th mammary fat pad. On day 8, mice were sorted into groups based on tumor volume (≈40 mm^3): PBS, anti‐PD‐1, MACTIDE‐V, MACTIDE‐V+anti‐PD‐1. Mice were treated i.p. every other day with 500 µL of MACTIDE‐V (30 nmol, 1mg kg^−1 Verteporfin) or PBS (10 injections in total). On day 18 post‐injection, MACTIDE‐V+anti‐PD‐1 and anti‐PD‐1 groups received recombiMAb anti‐mouse PD‐1 (Bioxcell, Catalog #CP151), a mouse IgG2a monoclonal antibody with the D265A mutation in the Fc fragment which renders it unable to bind to endogenous Fcγ receptors. Mice received three intraperitoneal injections of 200 µg of anti‐PD‐1 dissolved in 500 µL of PBS. […] Five tumors per group were analyzed by FC as described above. TAM/monocytes were defined as Ly6G^−CD11b^+/F4/80^+ population from the CD45^+ population.
The lungs of all mice were fixed in formalin and embedded in paraffin, and later sectioned and stained with H&E by the histology facility of Vall D´Hebron Research Institute (Barcelona, Spain). Five 10 µm‐sections spaced apart 1 mm were taken from the lungs of each mouse (n = 7 mice per group). Then, the slides were scanned, and the metastatic area divided by the total lung area was calculated for each mouse.

[1] = tumor flow cytometry, five tumors per group

Vert‐Ahx‐G(CTKSIPPIC)SPGAK‐OH (disulfide) [MACTIDE‐V]
primary tumor mass (MACTIDE-V 30 nmol i.p. every other day, anti-PD-1 three i.p. injections of 200 µg, sacrifice day 29): significantly reduced the primary tumor mass | pulmonary metastases (metastatic area from H&E sections, n = 7 mice per group, compared with anti-PD-1): superior effect on reducing pulmonary metastases | B cell infiltration (tumor flow cytometry): no differences in B cell infiltration | expression of Granzyme B (GrzB) in CD25^+PD‐1^+ CD8^+ T cells (tumor flow cytometry): increased | expression of PD‐1 on CD8^+ T cells (tumor flow cytometry): reduced | FOXP3^+PD‐1^+ population among CD4^+ T cells (tumor flow cytometry, compared to the other experimental conditions): decreasing trend | CD206^+MHCII^+ population of TAM/monocytes [1]: highest increase | CD206^+MHCII^− population of TAM/monocytes [1]: highest decrease | CD86^+MHCII^+ population of TAM/monocytes (tumor flow cytometry, n = 5): significantly increased | CD86^−MHCII^− population of TAM/monocytes (tumor flow cytometry, n = 5): decreased | CD4^+ T cells, CD8^+ T cells and NK cells in tumor (tumor flow cytometry, statistically significant only for NK cells): highest increase
